Source: ChEMBL document CHEMBL1126050, “Edward E. Smissman-Bristol-Myers Squibb Award Address. The role of concepts in structure-activity relationship studies of opioid ligands” (1992)

Test system: Mus musculus
Experiment: Compound was evaluated for antinociceptive potency by subcutaneous administration in mice using the hotplate assay
Assay type: functional
Conditions: sc

Compound	ED50
CC1[C@@H]2Cc3ccc(O)cc3[C@@]1(C)CCN2CCc1ccccc1 (some centres undefined)	0.1 mg/kg
C[C@H]1C2Cc3ccc(O)cc3[C@]1(C)CCN2C	2.6 mg/kg
Oc1cccc([C@@]23CCC[C@@H](C2)N(CCc2ccccc2)CC3)c1	3.99 mg/kg
CN1CC[C@]2(c3cccc(O)c3)CCC[C@H]1C2	2 mg/kg
